Assays:
Type in all cases: in vivo, human
obese men = test: tolbutamide-modified frequently sampled intravenous glucose tolerance test (FSIGTT), insulin sensitivity index by minimal model, clinical study; conditions: single oral dose 300-1200 mg, fasted, 2 hours before FSIGTT
From the text: The third method of determining insulin sensitivity involves frequently collecting blood samples for glucose and insulin during an intravenous glucose tolerance test, and analyzing the glucose and insulin dynamics using a minimal mathematical model developed by Bergman (Bergman et. al., J. Clin. Invest. 68:1456-1467 (1981)). This test can be modified by the injection of tolbutamide or exogenous insulin to boost the insulin response and improve the correlation with the euglycemic clamp. The FSIGTT provides an accessible way to determine the insulin sensitivity index (S1). The more insulin insensitive a subject is, the lower the calculated S1. As insulin sensitivity is improved, the S1 value is increased—thus a higher S1 value corresponds to greater insulin sensitivity.
A clinical study of D-chiro-inositol was performed in obese men. This was a three phase, double blind, single oral dose crossover study with subjects receiving either D-chiro-inositol (300-1200 mg) or placebo in a randomized crossover fashion. Treatments were administered to subjects in a fasted state 2 hours before the tolbutamide-modified frequently sampled intravenous glucose tolerance test (FSIGTT) began.
The insulin sensitivity index (S1) was derived using the minimal model analysis of plasma glucose and insulin concentrations sampled during a full tolbutamide-modified FSIGTT.

[1] = tested on: obese men and women with normal glucose tolerance; test: oral glucose tolerance test before and after treatment, clinical study, subjects with normal glucose tolerance; conditions: eleven volunteers with normal glucose response; 1200 mg/day for 7 to 14 days
Description: (§1) Impaired glucose tolerance, as defined by the World Health Organization, is determined by the administration of a standard oral glucose tolerance test (OGTT) (World Health Org., Diabetes Mellitus, Tech. Rep. Ser., no. 727 (1985)). During an OGTT, a measured amount of glucose (75 grams) is given to a fasted individual and blood glucose levels are measured every 30 minutes, usually for 2 or 3 hours. In a individual with normal glucose tolerance, the blood glucose values will rise during the first part of the test and then rapidly return to basal levels. In an IGT individual the post prandial glucose levels will rise above the normal range, producing a 2-hour glucose value of 140-199 mg/dL, and return to basal levels at a slow rate.
(§2) A clinical study utilizing D-chiro-inositol was performed in obese men and women with normal and abnormal glucose tolerance. Eighteen volunteers received D-chiro-inositol (1200 mg/day) for 7 to 14 days. An oral glucose tolerance test was performed at the beginning of the study, prior to treatment, and at the end of the study, after D-chiro-inositol treatment.

[2] = tested on: obese men and women with abnormal glucose tolerance; test: oral glucose tolerance test before and after treatment, clinical study, subjects with abnormal glucose tolerance; conditions: 1200 mg/day for 7 to 14 days
Description: as §1, §2

For `OC1C(O)C(O)C(O)C(O)C1O` [D-chiro-inositol], the “mean increase in insulin sensitivity” value (obese men) was 61%, the “subjects demonstrating an increase in insulin sensitivity (S1)” value (obese men; out of 9 subjects) was 6 out of 9 and the “glucose values during OGTT” value [1] was “not modified”. For the same molecule, the “90 and 120 minute glucose values in OGTT” value ([2]; abnormal glucose tolerant subjects, p<0.05) was “statistically significant reduction” and the “glucose response to the glucose load (OGTT)” value ([2]; seven subjects with abnormal, elevated glucose response) was “significantly improved”.

Reference: US20010039297A1, “COMPOSITIONS AND METHOD FOR IMPROVING INSULIN SENSIVITY AND GLUCOSE METABOLISM IN INDIVIDUALS WITH IMPAIRED FASTING GLUCOSE OR IMPAIRED GLUCOSE TOLERANCE” (Insmed Pharmaceuticals, Inc., priority 1998, published 2001)
